Results taken from patent publication US9840513B2 (AbbVie S.à.r.l., priority 2015, dated 2017).

Target: T1, F508delCFTR cell surface expression in CFBE41o-F508delCFTR-HRP cells (Homo sapiens, UniProt P13569, DEL508-508)
T1 construct: fused on or other part: Horseradish peroxidase (HRP) reporter inserted in the fourth exofacial (extracellular) loop of CFTR; expression is doxycycline-inducible
Test: Cell Surface Expression-Horse Radish Peroxidase (CSE-HRP) Assay
Format: cell-based
Conditions: for EC50: CFBE41o-F508delCFTR-HRP cells, 18-24 hours at 33° C., 8-point curve, highest concentration 20 μM; for Maximum % activity (%): maximum at any tested concentration, normalized to on-plate positive control (3 μM)
Method in brief: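 Correctors incubated 18-24 h at 33 °C on doxycycline-induced (0.5 μg/mL, 72 h) CFBE41o-F508delCFTR-HRP cells, 3-fold series from 20 μM. After DPBS washes, luminol luminescence read; activity expressed relative to DMSO and a 3 μM positive control, EC50 fitted from triplicate plates.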

T1 sequence (P13569 with tags, fused parts or gaps DEL508-508 limits assumed): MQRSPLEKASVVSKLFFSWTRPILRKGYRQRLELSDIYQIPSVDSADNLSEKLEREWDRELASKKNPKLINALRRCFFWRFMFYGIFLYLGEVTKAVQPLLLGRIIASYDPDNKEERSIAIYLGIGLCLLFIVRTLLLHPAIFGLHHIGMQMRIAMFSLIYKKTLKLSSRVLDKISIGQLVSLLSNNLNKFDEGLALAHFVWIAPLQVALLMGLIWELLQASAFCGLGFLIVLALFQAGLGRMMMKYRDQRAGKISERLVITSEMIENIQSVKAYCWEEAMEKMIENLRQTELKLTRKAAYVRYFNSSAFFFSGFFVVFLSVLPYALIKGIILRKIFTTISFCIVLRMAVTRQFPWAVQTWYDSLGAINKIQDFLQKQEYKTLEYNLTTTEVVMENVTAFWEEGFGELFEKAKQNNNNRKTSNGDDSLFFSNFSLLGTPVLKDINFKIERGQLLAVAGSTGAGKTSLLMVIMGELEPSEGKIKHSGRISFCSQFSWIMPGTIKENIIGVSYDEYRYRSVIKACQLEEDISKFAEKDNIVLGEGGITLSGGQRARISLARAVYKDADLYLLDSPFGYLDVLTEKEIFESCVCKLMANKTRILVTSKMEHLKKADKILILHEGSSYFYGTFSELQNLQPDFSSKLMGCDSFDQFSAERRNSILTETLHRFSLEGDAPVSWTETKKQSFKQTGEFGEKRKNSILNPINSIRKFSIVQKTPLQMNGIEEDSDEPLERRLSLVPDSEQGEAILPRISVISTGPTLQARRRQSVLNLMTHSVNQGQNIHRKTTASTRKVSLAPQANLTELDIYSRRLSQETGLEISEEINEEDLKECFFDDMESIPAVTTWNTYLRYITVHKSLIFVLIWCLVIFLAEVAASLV
T1 sequence (P13569 919-1480 limits assumed, stated change not applied): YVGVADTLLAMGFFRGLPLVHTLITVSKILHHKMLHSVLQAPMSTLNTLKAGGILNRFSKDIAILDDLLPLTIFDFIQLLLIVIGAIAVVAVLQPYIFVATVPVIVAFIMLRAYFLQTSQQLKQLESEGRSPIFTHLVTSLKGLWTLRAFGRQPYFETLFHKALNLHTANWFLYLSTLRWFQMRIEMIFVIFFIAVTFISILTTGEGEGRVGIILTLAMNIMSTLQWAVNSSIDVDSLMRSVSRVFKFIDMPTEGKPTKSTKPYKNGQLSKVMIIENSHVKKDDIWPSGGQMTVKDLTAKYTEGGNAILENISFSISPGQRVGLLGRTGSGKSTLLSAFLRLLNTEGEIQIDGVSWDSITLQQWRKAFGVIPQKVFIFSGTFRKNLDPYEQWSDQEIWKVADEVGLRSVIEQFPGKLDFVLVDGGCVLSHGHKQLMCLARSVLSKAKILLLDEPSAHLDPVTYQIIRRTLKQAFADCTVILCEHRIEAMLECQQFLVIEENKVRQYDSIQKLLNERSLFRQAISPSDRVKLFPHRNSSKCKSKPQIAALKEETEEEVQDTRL

| Compound | EC50 | Maximum % activity (%) |
| --- | --- | --- |
| C[C@]1(C(=O)Nc2cc(-c3ccccc3)nn(C[C@H](O)[C@H](O)CO)c2=O)COc2cc3c(cc21)OC(F)(F)O3 [Example 105, (7R)-2,2-difluoro-7-methyl-N-{3-oxo-6-phenyl-2-[(2S,3R)-2,3,4-trihydroxybutyl]-2,3-dihydropyridazin-4-yl}-6,7-dihydro-2H-furo[2,3-f][1,3]benzodioxole-7-carboxamide] | > 20000 nM | 5% |
| CC1(C)OC[C@H]([C@H](O)Cn2nc(-c3ccccc3)cc(NC(=O)[C@@]3(C)COc4cc5c(cc43)OC(F)(F)O5)c2=O)O1 [Example 106, (7R)—N-(2-{(2R)-2-[(4R)-2,2-dimethyl-1,3-dioxolan-4-yl]-2-hydroxyethyl}-3-oxo-6-phenyl-2,3-dihydropyridazin-4-yl)-2,2-difluoro-7-methyl-6,7-dihydro-2H-furo[2,3-f][1,3]benzodioxole-7-carboxamide] | 14100 nM | 18% |
| CC(C)CN1CC2CN(c3cccc(NC(=O)C4(C)COc5cc6c(cc54)OC(F)(F)O6)n3)CC2C1 (stereo not drawn) [Example 108, 2,2-difluoro-7-methyl-N-{6-[5-(2-methylpropyl)hexahydropyrrolo[3,4-c]pyrrol-2(1H)-yl]pyridin-2-yl}-6,7-dihydro-2H-furo[2,3-f][1,3]benzodioxole-7-carboxamide] | 1990 nM | 89% |
| COC(=O)[C@H]1CN(c2cccc(NC(=O)[C@@]3(C)COc4cc5c(cc43)OC(F)(F)O5)n2)C[C@@H]1c1ccccc1 [Example 112, methyl (3R,4S)-1-(6-{[(7R)-2,2-difluoro-7-methyl-6,7-dihydro-2H-furo[2,3-f][1,3]benzodioxole-7-carbonyl]amino}pyridin-2-yl)-4-phenylpyrrolidine-3-carboxylate] | 990 nM | 131% |
| Cc1cc(C(=O)O)ccc1-c1cccc(NC(=O)[C@@]2(C)COc3cc4c(cc32)OC(F)(F)O4)n1 [Example 120, 4-(6-{[(7R)-2,2-difluoro-7-methyl-6,7-dihydro-2H-furo[2,3-f][1,3]benzodioxole-7-carbonyl]amino}pyridin-2-yl)-3-methylbenzoic acid] | 1440 nM | 253% |
| Cc1c(C(=O)O)cccc1-c1cccc(NC(=O)[C@@]2(C)COc3cc4c(cc32)OC(F)(F)O4)n1 [Example 122, 3-(6-{[(7R)-2,2-difluoro-7-methyl-6,7-dihydro-2H-furo[2,3-f][1,3]benzodioxole-7-carbonyl]amino}pyridin-2-yl)-2-methylbenzoic acid] | 1940 nM | 173% |
| C[C@]1(C(=O)Nc2cccc(-c3ccc(C(=O)O)cc3F)n2)COc2cc3c(cc21)OC(F)(F)O3 [Example 123, 4-(6-{[(7R)-2,2-difluoro-7-methyl-6,7-dihydro-2H-furo[2,3-f][1,3]benzodioxole-7-carbonyl]amino}pyridin-2-yl)-3-fluorobenzoic acid] | 1530 nM | 189% |
| Cc1ccc(NC(=O)[C@@]2(C)COc3cc4c(cc32)OC(F)(F)O4)nc1-c1cccc(S(=O)(=O)NC2CC2)c1 [Example 124, (7R)—N-{6-[3-(cyclopropylsulfamoyl)phenyl]-5-methylpyridin-2-yl}-2,2-difluoro-7-methyl-6,7-dihydro-2H-furo[2,3-f][1,3]benzodioxole-7-carboxamide] | 740 nM | 124% |
| C[C@]1(C(=O)Nc2cccc(-c3cccc(C(=O)O)c3F)n2)COc2cc3c(cc21)OC(F)(F)O3 [Example 125, 3-(6-{[(7R)-2,2-difluoro-7-methyl-6,7-dihydro-2H-furo[2,3-f][1,3]benzodioxole-7-carbonyl]amino}pyridin-2-yl)-2-fluorobenzoic acid] | 1390 nM | 136% |

Second part, the molecule after the results:

| EC50 | Maximum % activity (%) | Compound |
| --- | --- | --- |
| 3040 nM | 136% | CN1CC2CN(c3cccc(NC(=O)C4(C)COc5cc6c(cc54)OC(F)(F)O6)n3)CC2C1 (stereo not drawn) [Example 107, 2,2-difluoro-7-methyl-N-[6-(5-methylhexahydropyrrolo[3,4-c]pyrrol-2(1H)-yl)pyridin-2-yl]-6,7-dihydro-2H-furo[2,3-f][1,3]benzodioxole-7-carboxamide] |
| 580 nM | 89% | C[C@]1(C(=O)Nc2cccc(N3CCC(S(C)(=O)=O)C3)n2)COc2cc3c(cc21)OC(F)(F)O3 (stereo partly drawn) [Example 109, (7R)-2,2-difluoro-N-{6-[3-(methanesulfonyl)pyrrolidin-1-yl]pyridin-2-yl}-7-methyl-6,7-dihydro-2H-furo[2,3-f][1,3]benzodioxole-7-carboxamide] |
| 3020 nM | 120% | C[C@]1(C(=O)Nc2cccc(N3CCC(CO)(CCl)C3)n2)COc2cc3c(cc21)OC(F)(F)O3 (stereo partly drawn) [Example 110, (7R)—N-{6-[3-(chloromethyl)-3-(hydroxymethyl)pyrrolidin-1-yl]pyridin-2-yl}-2,2-difluoro-7-methyl-6,7-dihydro-2H-furo[2,3-f][1,3]benzodioxole-7-carboxamide] |
| 540 nM | 91% | C[C@]1(C(=O)Nc2cccc(N3CC[C@@H](S(C)(=O)=O)C3)n2)COc2cc3c(cc21)OC(F)(F)O3 [Example 111, (7R)-2,2-difluoro-N-{6-[(3R)-3-(methanesulfonyl)pyrrolidin-1-yl]pyridin-2-yl}-7-methyl-6,7-dihydro-2H-furo[2,3-f][1,3]benzodioxole-7-carboxamide] |
| 750 nM | 98% | C[C@]1(C(=O)Nc2cccc(N3CCC(c4ccc(F)cc4)C3)n2)COc2cc3c(cc21)OC(F)(F)O3 (stereo partly drawn) [Example 114, (7R)-2,2-difluoro-N-{6-[3-(4-fluorophenyl)pyrrolidin-1-yl]pyridin-2-yl}-7-methyl-6,7-dihydro-2H-furo[2,3-f][1,3]benzodioxole-7-carboxamide] |
| 1100 nM | 136% | CC1CN(c2cccc(NC(=O)[C@@]3(C)COc4cc5c(cc43)OC(F)(F)O5)n2)CC1C(=O)O (stereo partly drawn) [Example 116, 1-(6-{[(7R)-2,2-difluoro-7-methyl-6,7-dihydro-2H-furo[2,3-f][1,3]benzodioxole-7-carbonyl]amino}pyridin-2-yl)-4-methylpyrrolidine-3-carboxylic acid] |
| 1390 nM | 147% | C[C@]1(C(=O)Nc2cccc(N3CC4CCCC4(C(=O)O)C3)n2)COc2cc3c(cc21)OC(F)(F)O3 (stereo partly drawn) [Example 117, 2-(6-{[(7R)-2,2-difluoro-7-methyl-6,7-dihydro-2H-furo[2,3-f][1,3]benzodioxole-7-carbonyl]amino}pyridin-2-yl)hexahydrocyclopenta[c]pyrrole-3a(1H)-carboxylic acid] |
| 1220 nM | 123% | C[C@]1(C(=O)Nc2cccc(N3CCCC3)n2)COc2cc3c(cc21)OC(F)(F)O3 [Example 118, (7R)-2,2-difluoro-7-methyl-N-[6-(pyrrolidin-1-yl)pyridin-2-yl]-6,7-dihydro-2H-furo[2,3-f][1,3]benzodioxole-7-carboxamide] |
| 1180 nM | 136% | C[C@]1(C(=O)Nc2cccc(N3CCCCC3)n2)COc2cc3c(cc21)OC(F)(F)O3 [Example 119, (7R)-2,2-difluoro-7-methyl-N-[6-(piperidin-1-yl)pyridin-2-yl]-6,7-dihydro-2H-furo[2,3-f][1,3]benzodioxole-7-carboxamide] |
